# System: Sprague-Dawley rat kidneys
# Assay: Cold storage of rat kidneys for 24 hours, transplantation, post-transplant serum creatinine
# Format: in vivo
# Settings: component(s) added to Viaspan; kidneys preserved under static conditions for 24 hours at 4° C, then transplanted; serum creatinine measured hourly for 6 hours; control VIASP solution; FIG. 1
# Procedure: Sprague-Dawley rat kidneys were recovered in the normal fashion and were exsanguinated and cooled to 4° C. Experimental components were added to the solution to test for improvements in post-transplant function (indicated by serum creatinine levels). Seven different solutions were prepared for comparison according to Table 1. […] The kidneys were preserved under static conditions for 24 hours with the respective solutions, and transplanted into recipient animals. Post-transplant serum creatinine (S. CREAT) was measured hourly for 6 hours.
row,Compound,improvement in post-transplant function (indicated by serum creatinine levels) compared to the control
1,O=[N+]([O-])OCC(CO[N+](=O)[O-])O[N+](=O)[O-] [nitroglycerin],"Minimal, but statistically insignificant improvements"
2,CC(=O)N[C@@H](CS)C(=O)O [N-acetylcystein],"Minimal, but statistically insignificant improvements"
3,N=C(N)NCCC[C@H](N)C(=O)O [L-arginine],"Minimal, but statistically insignificant improvements"
4,CCCCC[C@H](O)/C=C/[C@H]1[C@H](O)CC(=O)[C@@H]1CCCCCCC(=O)O [prostaglandin E1],"Minimal, but statistically insignificant improvements"

# System: Rat kidneys
# Assay: Machine perfusion of rat kidneys for 24 hours, transplantation, post-transplant serum creatinine
# Format: in vivo
# Settings: component(s) added to Belzer solution; kidneys preserved under machine perfusion for 24 hours, then transplanted; serum creatinine measured hourly for 6 hours; control BELZ solution; FIG. 2
# Procedure: Rat kidneys were recovered as above. Seven different solutions were prepared for comparison according to Table 2. […] The kidneys were preserved under machine perfusion for 24 hours with the respective solutions, and transplanted into recipient animals. Post-transplant serum creatinine (S. CREAT) was measured hourly for 6 hours.
row,Compound,improvement in post-transplant function (serum creatinine) compared to the control
1,O=[N+]([O-])OCC(CO[N+](=O)[O-])O[N+](=O)[O-] [nitroglycerin],"Minimal, but statistically insignificant improvements"
2,CC(=O)N[C@@H](CS)C(=O)O [N-acetylcystein],"Minimal, but statistically insignificant improvements"
3,N=C(N)NCCC[C@H](N)C(=O)O [L-arginine],"Minimal, but statistically insignificant improvements"
4,CCCCC[C@H](O)/C=C/[C@H]1[C@H](O)CC(=O)[C@@H]1CCCCCCC(=O)O [prostaglandin E1],"Minimal, but statistically insignificant improvements"

# From patent publication US20100311035A1, “Preservation solution for organs and biological tissues” (priority 2005, published 2010)
